Columns and labels:
[1] = test system: pUC119 plasmid DNA; experiment: Protection of plasmid DNA from H2O2 and UV exposure (electrophoresis); format: biochemical; settings: 20 mM H2O2 + 20 mJ/m^2 UV; Amifostine 2000 μg/ml, GP-A 4000 μg/ml; FIG. 3
Experimental: In this example, we examined the ability of GP-A in protecting plasmid DNA from hydrogen peroxide (H2O2) and UV exposure, which was also an indicator of the ability of quenching free radicals because free radicals tend to attack DNA structure. Amifostine, GP-Amifostine and GP were respectively dissolved in dd-water at various concentrations.
The above-nine experimental groups were then mixed with 3 μl loading dye for electrophoresis in order to observe the integrity of the plasmid DNA.

[2] = cited from earlier work
[3] = patients, intravenously before each fraction of radiation therapy; cited from earlier work
[4] = NSCLC patients, chemoradiation therapy, Arm 2; cited from earlier work
[5] = cited from earlier work; remark: listed apart in the source

NCCCNCCSP(=O)(O)O [Amifostine, S-2-(3-aminopropylamino)ethyl dihydrogen phosphorothioate]
protection ability against UV & H2O2 treated plasmid DNA [1]: solid and slight protection ability | protection of brain and spinal cord from radiation damage ([2]; brain and spinal cord): not protected | protection of normal tissues from radiation damage (factor) ([2]; esophagus, lung, kidney, liver, bone marrow, immune system, skin, colon, small bowel, salivary gland, oral mucosa, testis): ≤ 3 | distribution between normal tissues and tumors ([2]; in vivo): selectively concentrated in normal tissues but passively absorbed by tumors | sparing of tumors from the effects of radiation or chemotherapy ([2]; tumors): no evidence that tumors were spared | severity of acute and late xerostomia [3]: significant reduction | Median survival time [4]: 19 months | discharge from a human body ([5]; human): within one hour | undesirable side-effects of systemic administration ([5]; patients, systemic administration): nausea, vomiting, emesis and hypotension, as well as flushing or feeling of warmth, chills or feeling of coldness, dizziness, somnolence, hiccups and sneezing

From patent US8648042B2, “Pharmaceutical compositions” (priority 2011, dated 2014)
